These results are taken from paper PMC12856317, “A reversible feedback mechanism regulating mitochondrial heme synthesis” (The Journal of Biological Chemistry, 2025).

Common to all, as to assay: Inhibitor competition, apoenzyme reactivation by PLP with hemin
Common to all, as to type: biochemical

The target in assay [1] is T1, apoALAS2 Cys-mut (C70A/C555A/C558A) (Homo sapiens, UniProt P22557, C555A/C558A/C70A).
T1 construct: Site-directed mutagenesis was performed on the mature ALAS2 (residues 54–587) construct to generate truncations and cysteine mutants; His6-SUMO (N, cleaved yes); made in house; host or cells: Escherichia coli BL21-Codon Plus (DE3)-RIL
T1 sequence (P22557 54-587 C70A/C555A/C558A): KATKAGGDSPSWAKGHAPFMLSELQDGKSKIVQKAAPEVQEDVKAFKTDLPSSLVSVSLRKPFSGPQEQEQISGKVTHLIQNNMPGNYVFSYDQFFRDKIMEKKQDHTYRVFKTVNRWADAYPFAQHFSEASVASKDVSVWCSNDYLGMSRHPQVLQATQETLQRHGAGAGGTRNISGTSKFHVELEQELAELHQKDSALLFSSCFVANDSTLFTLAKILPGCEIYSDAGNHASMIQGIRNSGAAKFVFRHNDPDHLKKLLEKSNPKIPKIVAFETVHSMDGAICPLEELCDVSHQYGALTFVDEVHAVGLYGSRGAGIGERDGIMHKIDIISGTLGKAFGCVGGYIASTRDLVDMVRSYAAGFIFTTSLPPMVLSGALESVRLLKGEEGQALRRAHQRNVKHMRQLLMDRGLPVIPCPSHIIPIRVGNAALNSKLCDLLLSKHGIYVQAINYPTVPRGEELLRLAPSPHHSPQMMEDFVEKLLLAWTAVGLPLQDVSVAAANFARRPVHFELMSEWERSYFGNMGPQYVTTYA
How it is done:
(§1) A discontinuous colorimetric activity assay adapted from Shoolingin-Jordan et al. and Bailey et al. was used to measure the enzyme activity ([48], [74]). The reaction was initiated by adding 100 nM purified enzyme to 50 mM potassium phosphate, pH 7.0, 10 mM MgCl2, 1 mM DTT, 100 mM glycine, and 300 μM succinyl-CoA (175 μl total). The reaction was incubated at 37 °C for 15 min and terminated with 100 μl of cold 10% trichloroacetic acid. The precipitated protein was removed by centrifugation for 5 min at 13,000g, and 240 μl of the supernatant was mixed with 240 μl of 1 M sodium acetate, pH 4.6. To derivatize ALA, 20 μl of acetylacetone was added to the mixture and boiled at 100 °C for 10 min. After the sample was cooled for 20 min, 100 μl aliquots were transferred into a clear 96-well plate in triplicate. An equal volume of Ehrlich’s reagent (p-Dimethylaminobenzaldehyde, DMAB) was added to each well, and the absorbance was monitored at 553 nm using a microplate reader (Thermo Fisher Scientific). The peak absorbance value was converted to molar ALA concentration using ε553 = 60,400 M^−1 cm^−1.
(§2) For inhibitor competition experiments, the apoenzymes were preincubated with hemin or PLP (0–100 μM) for 15 min at 25 °C in the dark before initiating the reaction. Next, either PLP or hemin (0–100 μM) was titrated into the reactions to measure enzyme activation after hemin inhibition or enzyme inhibition of the PLP-treated apoenzyme, respectively. For succinyl-CoA:hemin competition analyses, the WT holoenzyme was mixed with hemin (0, 25, 50, and 100 μM), followed by the addition of increasing succinyl-CoA concentrations (0, 25, 50, 100, 250, and 500 μM). All experiments were performed with a minimum of three biological replicates, each with three technical replicates. Data were fit using nonlinear regression to generate an agonist dose-response curve (EC50) or an inhibitor dose-response curve (IC50). Lineweaver-Burk analysis was performed using the resulting kinetic parameters (Vmax and KM) in GraphPad Prism 10.

In assay [2] the target is T2, apoALAS2 ΔN (residues 75–587) (Homo sapiens, UniProt P22557).
T2 construct: a truncation without HRM3 (ΔN, residues 75–587); His6-SUMO (N, cleaved yes); made in house; host or cells: Escherichia coli BL21-Codon Plus (DE3)-RIL
T2 sequence (P22557 75-587): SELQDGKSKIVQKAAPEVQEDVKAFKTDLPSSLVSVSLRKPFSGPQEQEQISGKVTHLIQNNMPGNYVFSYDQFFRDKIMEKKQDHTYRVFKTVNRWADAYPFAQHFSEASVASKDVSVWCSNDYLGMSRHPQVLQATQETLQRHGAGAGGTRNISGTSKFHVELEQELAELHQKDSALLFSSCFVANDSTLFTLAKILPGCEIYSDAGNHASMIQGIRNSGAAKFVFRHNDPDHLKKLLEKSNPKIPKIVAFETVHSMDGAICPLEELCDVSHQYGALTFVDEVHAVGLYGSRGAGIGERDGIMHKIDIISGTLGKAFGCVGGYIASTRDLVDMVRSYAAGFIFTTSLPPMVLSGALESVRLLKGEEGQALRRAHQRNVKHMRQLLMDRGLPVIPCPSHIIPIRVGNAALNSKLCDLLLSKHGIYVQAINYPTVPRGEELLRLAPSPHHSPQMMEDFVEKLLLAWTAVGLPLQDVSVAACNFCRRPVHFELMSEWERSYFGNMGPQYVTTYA
The procedure: as §1, §2

In assay [3] the target is T3, apoALAS2 ΔC (residues 54–547) (Homo sapiens, UniProt P22557).
T3 construct: a truncation without the C-terminal CXXC motif (ΔC, residues 54–547); His6-SUMO (N, cleaved yes); made in house; host or cells: Escherichia coli BL21-Codon Plus (DE3)-RIL
T3 sequence (P22557 54-547): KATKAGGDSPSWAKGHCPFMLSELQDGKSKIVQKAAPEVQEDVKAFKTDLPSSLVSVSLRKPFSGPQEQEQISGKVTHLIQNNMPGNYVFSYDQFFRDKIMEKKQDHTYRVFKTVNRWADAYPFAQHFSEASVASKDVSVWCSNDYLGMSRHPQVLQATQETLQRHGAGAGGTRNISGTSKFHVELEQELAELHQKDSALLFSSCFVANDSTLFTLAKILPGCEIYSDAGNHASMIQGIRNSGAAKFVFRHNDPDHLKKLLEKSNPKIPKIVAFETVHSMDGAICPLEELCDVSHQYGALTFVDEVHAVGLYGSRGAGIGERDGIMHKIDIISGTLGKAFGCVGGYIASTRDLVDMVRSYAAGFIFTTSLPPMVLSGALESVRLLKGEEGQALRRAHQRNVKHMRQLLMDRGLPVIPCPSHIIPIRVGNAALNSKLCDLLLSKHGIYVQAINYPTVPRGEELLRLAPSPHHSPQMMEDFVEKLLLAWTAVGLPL
How it is done:
as §1, §2

Regarding ferric chloride heme [hemin], the mode of inhibition result in assay [1] (Cys-mut, multiple heme concentrations (Fig. S4)) is “allosteric mixed inhibitor”; in assay [2] (ΔN, multiple heme concentrations (Fig. S4)), “allosteric mixed inhibitor”; in assay [3] (ΔC, multiple heme concentrations (Fig. S4)) it was “allosteric mixed inhibitor”.
With `Cc1ncc(COP(=O)(O)O)c(C=O)c1O` [PLP], the EC50 in assay [1] (Cys-mut apoALAS2, PLP titration in the presence of 50 μM hemin) came to 10 ± 4 µM; in assay [2] (ΔN apoALAS2, PLP titration in the presence of 25 μM hemin), 4 ± 2 µM; in assay [3] (ΔC apoALAS2, PLP titration in the presence of 50 μM hemin), 9 ± 1 µM. The compound also yielded an apoenzyme activity restored in assay [3] (ΔC apoenzyme preincubated with 50 μM heme, excess PLP) of approximately 50%.

The EC50 is the midpoint of the concentration-response curve.
